Assay results published in patent US12365658B2, “Benzothia(di)azepine compounds and their use as bile acid modulators” (Albireo AB, priority 2021, dated 2025).

Legend:
[1] = tested on: Caco-2 cells; assay: Bidirectional permeability assay (Caco-2 cells); format: in vitro ADME; settings: 10 μM in FaSSIF buffer, 120 minutes
Protocol: Bidirectional Permeability Assay (Caco-2 Cells)
Caco-2 cells (Evotec) were seeded at a density of 70,000 cells/well in Millicell® 24-well cell culture insert plates and maintained in an incubator (37° C., 5% CO2, 95% RH) for 21 days with media change on alternate days.
Stock solutions (10 mM) of the test compounds, atenolol (low permeability marker), propranolol (high permeability marker) and digoxin (substrate for P-gp transport pathway) were prepared in dimethylsulfoxide (DMSO). An intermediate stock solution (1 mM) was prepared by diluting 10 μL of 10 mM master stock solution with 90 μL of neat DMSO. A working stock solution (10 μM) was prepared by diluting 50 μL of 1 mM with 4950 μL of FaSSIF buffer. Post addition of compounds to the FaSSIF, samples were subjected to sonication for 2 hours, and centrifuged at 4000 RPM for 30 minutes at 37° C. The 4 mL of resultant supernatant was directly used in the assay. The final DMSO concentration in the transport experiments was 1%.
On the day of assay, Caco-2 monolayers were washed twice with transport buffer (HBSS, pH 7.4) and pre-incubated for 30 min (37° C., 5% CO2, 95% RH) in an incubator. The electrical resistance of the monolayers was measured with a Millicell®-ERS system. Monolayers with trans-epithelial electrical resistance (TEER) values greater than 350 ohm·cm^2 were selected for the assay.
The assay was conducted in absorptive direction (A2B) and secretory (B2A) directions. Transport experiments were initiated by addition of transport assay buffer (FaSSIF buffer prepared in HBSS) consisting of compounds to the donor compartment (apical chamber A-B; basolateral chamber B-A) in duplicate (n=2) wells. Drug free HBSS buffer (pH 7.4) containing 1% bovine serum albumin (BSA) was introduced to the receiver (A-B-basolateral; B-A-Apical) compartments. The volumes of apical and basolateral compartments were 0.4 and 0.8 mL, respectively. After adding dosing solution, plates were incubated in an incubator for 120 minutes at 37° C. After 120 minutes, donor and receiver samples were collected and matrix matched (1:1, 30 μL study sample+30 μL blank buffer) with the opposite buffer. Dosing samples matrix matched (1:1, 30 μL study sample+30 μL blank buffer) with the opposite buffer. Samples were processed by adding acetonitrile containing internal standard (60 μL study sample+200 μL acetonitrile containing internal standard-Tolbutamide, 500 ng/mL). Samples were vortexed and centrifuged at 4000 rpm for 10 minutes. The obtained supernatant (100 μL) was diluted with 100 μL of water and transferred to fresh 96 well plates. The concentration of compounds in the samples was analyzed by liquid chromatography tandem mass spectrometry (LC-MS/MS) method using discovery grade bio-analytical method, as applicable.
The mean apparent permeability (Papp, ×10^−6 cm/sec) of the test compounds, atenolol, propranolol and digoxin were calculated as follows:
where dq/dt=rate of transport (rate of transport of compound in the receiver compartment), C0=initial concentration in the donor compartment, A=surface area of the effective filter membrane.

[2] = Bioavailability studies; format: in vivo, Male mice (C57BL/6 or CD1) or Wistar rats; settings: male, plasma; single intravenous dose 1 mg/kg and single oral dose 10 mg/kg; species per compound not given
Protocol: Male mice (C57BL/6 or CD1) or Wistar rats of 8-9 weeks old were used. For each test compound, two groups of 3 animals each were used. One group was administered a single intravenous dose of 1 mg/kg (vehicle 100% DMSO) through the tail vein and the other group was administered a single oral dose of 10 mg/kg through gavage needle. The group that was administered an oral dose was fasted overnight. Blood samples were collected after 0.083, 0.25, 0.5, 1, 2, 4, 6, 8 and 24 hours following intravenous administration, and after 0.25, 0.5, 1, 2, 4, 6, 8 and 24 hours following oral administration. Blood samples were taken from saphenous vein. 0.2% EDTA was used as the anticoagulant. The samples were analyzed by a discovery grade bioanalytical method developed for the estimation of test compound in plasma, using an LC-MS/MS system.

[3] = molecular target: T1, Human LBAT (Homo sapiens, UniProt Q14973); assay: LBAT (h/m) assay, human LBAT-overexpressing cells, 3H-taurocholic acid uptake; format: cell-based; settings: 0.3 μM 3H-taurocholic acid and 7.5 μM cold taurocholic acid, 20 minutes, read-out: hLBAT IC50
T1 construct: expressed in transfected cells; kept under Geneticin selection
T1 sequence (Q14973 1-349): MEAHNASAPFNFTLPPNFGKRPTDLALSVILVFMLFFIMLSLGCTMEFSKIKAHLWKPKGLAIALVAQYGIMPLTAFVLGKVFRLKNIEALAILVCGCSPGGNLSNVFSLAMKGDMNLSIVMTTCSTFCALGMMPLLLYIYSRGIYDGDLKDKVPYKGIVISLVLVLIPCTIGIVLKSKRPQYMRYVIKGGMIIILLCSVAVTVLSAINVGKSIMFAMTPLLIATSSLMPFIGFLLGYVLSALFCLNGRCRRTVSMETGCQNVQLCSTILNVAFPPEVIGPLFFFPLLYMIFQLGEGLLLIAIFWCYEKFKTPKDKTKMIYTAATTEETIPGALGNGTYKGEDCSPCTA
Protocol: LBAT (h/m) Assay Protocol
20,000 cells (Human or Mouse LBAT-overexpressing cells) were seeded in 96-wells plate (Corning CLS3809) in 100 μL MEM-alpha medium (Gibco 12571-063) supplemented with 10% FBS (Gibco 10438026) containing Geneticin (Gibco 10131-027) (1 mg/mL) and incubated at 37° C. in 5% CO2 for 24 hours. After incubation, media was decanted from the wells and cells were washed two times with 300 μL of basal MEM-alpha medium (FBS-free). After decanting basal MEM-alpha medium each time, plates were tapped against paper towel to ensure maximum removal of residual media.
For human LBAT, incubation mix was prepared by adding test inhibitor dilutions (3-fold serial dilution in DMSO (Sigma D2650), 10 points) in MEM-alpha (without FBS) containing 0.3 μM 3H-taurocholic acid (ARC ART-1368) and 7.5 μM cold taurocholic acid (Sigma T4009) (maintaining 0.2% final DMSO concentration). For mouse LBAT, incubation mix was prepared by adding test inhibitor dilutions (3-fold serial dilution in DMSO, 10 points) in MEM-alpha (without FBS) containing 0.3 μM 3H-taurocholic acid and 25 μM cold taurocholic acid maintaining 0.2% final DMSO concentration).
50 μL of incubation mix containing test inhibitors was then added to the wells (in duplicate) and the plates were incubated for 20 minutes in a CO2 incubator at 37° C. After incubation, the reaction was stopped by keeping the plates on ice water mix for 2-3 minutes and then the incubation mix was aspirated completely from the wells. The wells were washed two times with 250 μL of chilled unlabelled 1 mM taurocholic acid dissolved in HEPES (Gibco 15630080)-buffered (10 mM) HBSS (Gibco 14175079) (pH 7.4). The plates were tapped against a paper towel after every wash to ensure maximum removal of blocking buffer.
100 μL of MicroScint-20 (PerkinElmer 6013621) was added to the wells and kept overnight at room temperature before reading the plates in TopCount NXT™ Microplate Scintillation and Luminescence Counter from PerkinElmer under 3H Test protocol (set at 120 seconds reading time per well, with normal plate orientation).
Preparation of Test Compound Dilutions
All test compounds were provided in powder form at room temperature. 10 mM DMSO stocks of the test compounds were prepared, aliquoted and stored at −20° C. From the 10 mM DMSO stock of the compounds, a 3-fold serial dilution in DMSO was prepared to get a total of 10 dilutions of the test compounds. 0.5 μL of this dilution in DMSO was added to 250 μL of FBS-free basal media containing 3H-taurocholic acid and cold taurocholic acid to prepare the incubation mixture.

For `CCCCC1CN(c2ccc(F)cc2)c2cc(SC)c(OCC(C)(C)C(=O)O)cc2S(=O)(=O)N1C` (single isomer, unassigned) [14, enantiomer 2], the “Permeability (Caco-2) Papp A2B” value ([1]; absorptive direction (A2B)) was 12.2 ×10⁻⁶ cm/s, the “Permeability (Caco-2) Papp B2A” value ([1]; secretory direction (B2A)) was 7.3 ×10⁻⁶ cm/s and the bioavailability [2] was 100%. The IC50 [3] was 3 nM.
